Laboratory results as given in ChEMBL document CHEMBL1201862, “PubChem BioAssay data set” (2004).
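Values below derive from 48-hour exposures of cells grown in 96-well plates, with endpoints linearly interpolated between the two concentrations bracketing the appropriate inhibition level. GI50: concentration for 50% inhibition of growth.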 Active and inactive are the calls of the source. Rule as the data show it: active = GI50 up to about 1.1 µM and inactive = higher.

Tests used:
Assay in all cases: NCI anticancer screen, dose series, 48 h
RPMI-8226 = system: RPMI-8226
OVCAR-8 = system: OVCAR-8
M14 = system: M14
A498 = system: A498
SN12C = system: SN12C
SF-268 = system: SF-268
SK-MEL-2 = system: SK-MEL-2
HL-60 = system: HL-60
MOLT-4 = system: MOLT-4
COLO 205 = system: COLO 205
A549 = system: A549
UACC-257 = system: UACC-257
CCRF-CEM = system: CCRF-CEM
LOX IMVI = system: LOX IMVI
SW-620 = system: SW-620
NCI-H226 = system: NCI-H226
SK-MEL-5 = system: SK-MEL-5
SR = system: SR

Measured: GI50

COc1cccc(NC(=O)CC(=O)N2N=C(n3ccc4ccccc43)CC2c2ccccc2)c1 (stereo not given)
inactive: RPMI-8226 > 100 µM | OVCAR-8 > 100 µM | M14 > 100 µM | A498 > 100 µM | SN12C > 100 µM | SF-268 > 100 µM | SK-MEL-2 > 100 µM | HL-60 > 100 µM | MOLT-4 > 100 µM | COLO 205 > 100 µM | A549 > 100 µM | UACC-257 > 100 µM | CCRF-CEM > 100 µM | LOX IMVI > 100 µM | SW-620 > 100 µM

CCOc1cc2c(cc1OC)c[n+](C)c1c3cc(OC)c(OC)cc3ccc21
inactive: NCI-H226 > 57.1 µM | RPMI-8226 40.7 µM | OVCAR-8 > 60.3 µM | M14 > 100 µM | A498 47.6 µM | SN12C 77.4 µM | SF-268 > 93.3 µM | SK-MEL-2 33.3 µM | HL-60 17.2 µM | MOLT-4 > 81.3 µM | COLO 205 31.6 µM | SK-MEL-5 > 50.4 µM | SR 46.6 µM | A549 > 100 µM | UACC-257 > 61.4 µM | CCRF-CEM 35.9 µM | LOX IMVI 46.6 µM | SW-620 46.5 µM

COc1cc2c(c(OC)c1)C(=O)C(=O)C(CC1(C)OCCCO1)=C2
inactive: NCI-H226 6.17 µM | RPMI-8226 3.56 µM | OVCAR-8 11.5 µM | M14 12 µM | A498 17.2 µM | SN12C 13.2 µM | SF-268 14.7 µM | SK-MEL-2 16 µM | HL-60 1.85 µM | MOLT-4 3.27 µM | COLO 205 3.49 µM | SK-MEL-5 6.05 µM | SR 3.3 µM | A549 10.9 µM | UACC-257 14.1 µM | CCRF-CEM 1.91 µM | LOX IMVI 5.01 µM | SW-620 1.79 µM

CCOC(OCC)c1ccc(/C=C/c2cc(OC)c(OC)c(OC)c2)cc1
inactive: NCI-H226 30.4 µM | RPMI-8226 17.1 µM | OVCAR-8 26.9 µM | M14 17.7 µM | A498 18.8 µM | SN12C 18.9 µM | SF-268 23.1 µM | HL-60 11.7 µM | COLO 205 18.7 µM | SK-MEL-5 15.2 µM | A549 27.7 µM | UACC-257 20.2 µM | CCRF-CEM 12.9 µM | LOX IMVI 11.1 µM | SW-620 22.7 µM

COc1cccc(N2C(=O)c3c(c4[nH]c5ccccc5c4c4ccc(C(C)(C)C)cc34)C2=O)c1
inactive: NCI-H226 > 100 µM | OVCAR-8 > 100 µM | M14 > 100 µM | A498 > 100 µM | SN12C > 100 µM | SF-268 > 100 µM | SK-MEL-2 > 100 µM | MOLT-4 84.7 µM | COLO 205 > 100 µM | SK-MEL-5 > 100 µM | SR > 100 µM | A549 > 100 µM | UACC-257 > 100 µM | CCRF-CEM > 100 µM | LOX IMVI > 100 µM | SW-620 > 100 µM

C=C(COC(C)=O)CC(/C=C(\C)CC/C=C(\C)CO)OC(C)=O (stereo not given)
inactive: NCI-H226 > 100 µM | RPMI-8226 > 10 µM | OVCAR-8 > 100 µM | M14 > 100 µM | A498 > 100 µM | SN12C > 100 µM | SF-268 > 100 µM | SK-MEL-2 > 100 µM | HL-60 > 100 µM | MOLT-4 35.1 µM | COLO 205 > 100 µM | SK-MEL-5 > 100 µM | A549 > 100 µM | CCRF-CEM > 100 µM | LOX IMVI > 100 µM | SW-620 > 100 µM

Cc1cccc(C)c1NC(=O)CCC/C(CC(=O)c1ccc(F)cc1)=N\NC(=O)C(=O)NN
inactive: NCI-H226 > 100 µM | RPMI-8226 > 100 µM | OVCAR-8 > 100 µM | M14 > 100 µM | A498 > 100 µM | SN12C > 100 µM | SF-268 > 100 µM | SK-MEL-2 > 100 µM | HL-60 > 100 µM | MOLT-4 > 100 µM | COLO 205 > 100 µM | SK-MEL-5 > 100 µM | A549 > 100 µM | UACC-257 > 100 µM | CCRF-CEM > 100 µM | LOX IMVI > 100 µM | SW-620 > 100 µM

Cn1cnc([N+](=O)[O-])c1Sc1nccn1-c1cccc2ccccc12
inactive: NCI-H226 18.2 µM | RPMI-8226 15.8 µM | OVCAR-8 20.8 µM | M14 18.8 µM | A498 32.7 µM | SN12C 31.7 µM | SF-268 24.8 µM | SK-MEL-2 14.1 µM | MOLT-4 12.9 µM | COLO 205 16.7 µM | SK-MEL-5 29.2 µM | SR 15.8 µM | A549 35 µM | UACC-257 27.3 µM | CCRF-CEM 19.5 µM | LOX IMVI 13.6 µM | SW-620 26.2 µM

CCOC(=O)/C(C#N)=C(O)/C(=C\c1ccc(Br)cc1)NC(=O)c1ccccc1
inactive: NCI-H226 30.4 µM | RPMI-8226 22.4 µM | OVCAR-8 > 100 µM | M14 > 100 µM | A498 > 100 µM | SN12C > 100 µM | SF-268 > 100 µM | HL-60 > 100 µM | MOLT-4 > 100 µM | COLO 205 > 100 µM | SK-MEL-5 > 100 µM | A549 > 100 µM | UACC-257 > 100 µM | CCRF-CEM > 100 µM | SW-620 19.2 µM

COc1ccc2occ(CCC(=O)O)c2c1
inactive: RPMI-8226 > 100 µM | OVCAR-8 > 100 µM | M14 > 100 µM | A498 > 100 µM | SN12C > 100 µM | HL-60 > 100 µM | MOLT-4 > 100 µM | COLO 205 > 100 µM | SK-MEL-5 > 100 µM | A549 > 100 µM | UACC-257 > 100 µM | CCRF-CEM > 100 µM | LOX IMVI > 100 µM | SW-620 > 100 µM

O=C1CC[C@@H](S(=O)(=O)c2ccccc2)[C@H](/C=C/c2ccccc2)O1
inactive: NCI-H226 > 100 µM | RPMI-8226 > 100 µM | OVCAR-8 > 100 µM | M14 > 100 µM | A498 > 100 µM | SN12C > 100 µM | HL-60 > 100 µM | MOLT-4 > 100 µM | COLO 205 > 100 µM | SK-MEL-5 > 100 µM | SR > 100 µM | A549 > 100 µM | UACC-257 > 100 µM | CCRF-CEM > 100 µM | LOX IMVI > 100 µM | SW-620 > 100 µM

O=C(O)C1=NN=C(C(=O)O)NN1
inactive: NCI-H226 > 100 µM | RPMI-8226 43.9 µM | OVCAR-8 > 100 µM | M14 > 100 µM | SN12C > 100 µM | SF-268 > 100 µM | SK-MEL-2 > 100 µM | HL-60 > 100 µM | MOLT-4 > 100 µM | COLO 205 > 100 µM | SK-MEL-5 > 100 µM | A549 > 100 µM | UACC-257 > 100 µM | CCRF-CEM > 100 µM | LOX IMVI > 100 µM | SW-620 38.6 µM

O=C(Cn1ccnc1[N+](=O)[O-])c1ccccc1
inactive: NCI-H226 > 100 µM | RPMI-8226 > 100 µM | OVCAR-8 > 100 µM | M14 > 100 µM | A498 > 100 µM | SN12C > 100 µM | SF-268 > 100 µM | SK-MEL-2 > 100 µM | HL-60 > 100 µM | MOLT-4 > 100 µM | COLO 205 > 100 µM | SK-MEL-5 > 100 µM | A549 > 100 µM | UACC-257 > 100 µM | CCRF-CEM > 100 µM | LOX IMVI > 100 µM | SW-620 > 100 µM

CC(=O)N1CC(=O)NC1=S
inactive: NCI-H226 > 100 µM | RPMI-8226 > 100 µM | OVCAR-8 > 100 µM | M14 > 100 µM | SN12C > 100 µM | SF-268 > 100 µM | SK-MEL-2 > 100 µM | HL-60 > 100 µM | MOLT-4 > 100 µM | COLO 205 > 100 µM | SK-MEL-5 > 100 µM | SR > 100 µM | A549 > 100 µM | UACC-257 > 100 µM | CCRF-CEM > 100 µM | LOX IMVI > 100 µM | SW-620 > 100 µM

Nc1ncc(Cc2nn3c(COc4ccc(Cl)cc4)nnc3s2)s1
inactive: NCI-H226 > 100 µM | RPMI-8226 > 100 µM | OVCAR-8 > 100 µM | M14 > 100 µM | SN12C > 100 µM | SF-268 > 100 µM | SK-MEL-2 > 100 µM | HL-60 > 100 µM | MOLT-4 > 100 µM | COLO 205 > 100 µM | SK-MEL-5 > 100 µM | SR 49.2 µM | A549 > 100 µM | UACC-257 > 100 µM | CCRF-CEM > 100 µM | SW-620 > 100 µM

Cc1cc([N+](=O)[O-])ccc1Sc1c2ccccc2nc2ccccc12
inactive: NCI-H226 > 100 µM | OVCAR-8 29.1 µM | M14 32.6 µM | A498 > 100 µM | SN12C 39.6 µM | SF-268 41 µM | SK-MEL-2 23.1 µM | HL-60 3.03 µM | MOLT-4 15.7 µM | COLO 205 39.9 µM | SK-MEL-5 43.1 µM | SR 27.7 µM | A549 64.6 µM | UACC-257 29.4 µM | CCRF-CEM 21.8 µM | LOX IMVI 20 µM | SW-620 22.6 µM

NC(=O)c1ccccc1NC(=O)C(=O)C(C(=O)c1ccc(Cl)c(Cl)c1)C1OC(=O)c2ccccc21 (stereo not given)
inactive: NCI-H226 14.9 µM | RPMI-8226 69.2 µM | OVCAR-8 39.6 µM | M14 61.1 µM | A498 31.8 µM | SN12C 44.4 µM | SF-268 34.4 µM | HL-60 > 100 µM | MOLT-4 > 100 µM | COLO 205 41.8 µM | SR 95.9 µM | A549 43.1 µM | UACC-257 62.4 µM | CCRF-CEM > 100 µM | SW-620 46.5 µM
